# Source: US20240358693A1, “METHODS OF TREATING PAIN” (Aisa Pharma, Inc., priority 2023, published 2024)
# Test system: participants with SSc-RP
# Assay: Scleroderma Health Assessment Questionnaire (SHAQ): disability indices and visual analog scales
# Assay type: in vivo, human
# Details: for SHAQ Visual Analogue Scale - Overall Disease Severity, Median / SHAQ Visual Analogue Scale - Pain, Mean / SHAQ Visual Analogue Scale - Pain, Median / SHAQ Visual Analogue Scale - Raynaud's, Mean / SHAQ Visual Analogue Scale - Raynaud's, Median / SHAQ Visual Analogue Scale - Breathing Problems, Mean / SHAQ Visual Analogue Scale - Breathing Problems, Median / SHAQ Visual Analogue Scale - Finger Ulcers, Mean / SHAQ Visual Analogue Scale - Finger Ulcers, Median / SHAQ Visual Analogue Scale - Intestinal Problems, Mean / SHAQ Visual Analogue Scale - Intestinal Problems, Median / SHAQ Visual Analogue Scale - Overall Disease Severity, Mean: In-Clinic Visit (Day 12), PP Population Part A
# Method in brief: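 Participants with SSc-RP completed the SHAQ at screening and each in-clinic visit. Standard and alternative disability indices (eight categories, 0–3; standard adjusts for aids/assistance) plus Raynaud's VAS on interference over the past 7 days. Reported as absolute change from baseline to end of each dosing period.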
# [1] = Pooled Cilnidipine 10 mg and Cilnidipine 10 mg + Tadalafil 5 mg (N = 9)
# [2] = Pooled Cilnidipine 10 mg and Cilnidipine 10 mg + Tadalafil 5 mg (N = 9), Subject 01-110 score excluded
# [3] = Pooled Cilnidipine 20 mg and Cilnidipine 20 mg + Tadalafil 5 mg (N = 8)
# [4] = Modified ITT, Part A, dose Cilnidipine 10 mg, Tadalafil 5 mg, or 10 mg + 5 mg
# [5] = Modified ITT, Part A, dose Cilnidipine 20 mg, or 20 mg + Tadalafil 5 mg
smiles,measurement,setting,value
"COCCOC(=O)C1=C(C)NC(C)=C(C(=O)OC/C=C/c2ccccc2)C1c1cccc([N+](=O)[O-])c1 (stereo not shown) [Cilnidipine, cilnidipine]","SHAQ Visual Analogue Scale - Overall Disease Severity, Median",[1],1.900
same,"SHAQ Visual Analogue Scale - Pain, Mean",[1],2.644
same,"SHAQ Visual Analogue Scale - Pain, Median",[1],2.900
same,"SHAQ Visual Analogue Scale - Raynaud's, Mean",[1],2.319
same,"SHAQ Visual Analogue Scale - Raynaud's, Median",[1],2.600
same,"SHAQ Visual Analogue Scale - Breathing Problems, Mean",[2],1.375
same,"SHAQ Visual Analogue Scale - Breathing Problems, Median",[2],0.000
same,"SHAQ Visual Analogue Scale - Breathing Problems, Mean",[3],1.400
same,"SHAQ Visual Analogue Scale - Breathing Problems, Median",[3],0.450
same,"SHAQ Visual Analogue Scale - Finger Ulcers, Mean",[3],1.171
same,"SHAQ Visual Analogue Scale - Finger Ulcers, Median",[3],0.000
same,"SHAQ Visual Analogue Scale - Intestinal Problems, Mean",[3],1.013
same,"SHAQ Visual Analogue Scale - Intestinal Problems, Median",[3],0.100
same,"SHAQ Visual Analogue Scale - Overall Disease Severity, Mean",[3],1.938
same,"SHAQ Visual Analogue Scale - Overall Disease Severity, Median",[3],1.300
same,"SHAQ Visual Analogue Scale - Pain, Mean",[3],2.288
same,"SHAQ Visual Analogue Scale - Pain, Median",[3],2.100
same,"SHAQ Visual Analogue Scale - Raynaud's, Mean",[3],1.688
same,"SHAQ Visual Analogue Scale - Raynaud's, Median",[3],0.850
same,"SHAQ Visual Analogue Scale - Breathing Problems, Mean",Pooled Cilnidipine (N = 8),1.213
same,"SHAQ Visual Analogue Scale - Breathing Problems, Median",Pooled Cilnidipine (N = 8),0.200
same,"SHAQ Visual Analogue Scale - Finger Ulcers, Mean",Pooled Cilnidipine (N = 8),0.463
same,"SHAQ Visual Analogue Scale - Finger Ulcers, Median",Pooled Cilnidipine (N = 8),0.000
same,"SHAQ Visual Analogue Scale - Intestinal Problems, Mean",Pooled Cilnidipine (N = 8),0.975
same,"SHAQ Visual Analogue Scale - Intestinal Problems, Median",Pooled Cilnidipine (N = 8),0.300
same,"SHAQ Visual Analogue Scale - Overall Disease Severity, Mean",Pooled Cilnidipine (N = 8),1.475
same,"SHAQ Visual Analogue Scale - Overall Disease Severity, Median",Pooled Cilnidipine (N = 8),1.300
same,"SHAQ Visual Analogue Scale - Pain, Mean",Pooled Cilnidipine (N = 8),1.875
same,"SHAQ Visual Analogue Scale - Pain, Median",Pooled Cilnidipine (N = 8),1.550
same,"SHAQ Visual Analogue Scale - Raynaud's, Mean",Pooled Cilnidipine (N = 8),1.900
same,"SHAQ Visual Analogue Scale - Raynaud's, Median",Pooled Cilnidipine (N = 8),1.250
same,"SHAQ Finger Ulcers, Baseline, Mean",[4],0.700
same,"SHAQ Finger Ulcers, Baseline, Median",[4],0.500
same,"SHAQ Finger Ulcers, In Clinic Visit (Day 12), Mean",[4],0.275
same,"SHAQ Finger Ulcers, In Clinic Visit (Day 12), Median",[4],0.000
same,"SHAQ Standard disability index, Baseline, Mean",[4],0.656
same,"SHAQ Standard disability index, Baseline, Median",[4],0.563
same,"SHAQ Standard disability index, In Clinic Visit (Day 12), Mean",[4],0.656
same,"SHAQ Standard disability index, In Clinic Visit (Day 12), Median",[4],0.563
same,"SHAQ Visual Analog Scale-Breathing Problems, Baseline, Mean",[4],1.875
same,"SHAQ Visual Analog Scale-Breathing Problems, Baseline, Median",[4],0.000
same,"SHAQ Visual Analog Scale-Breathing Problems, In Clinic Visit (Day 12), Mean",[4],1.575
same,"SHAQ Visual Analog Scale-Breathing Problems, In Clinic Visit (Day 12), Median",[4],0.000
same,"SHAQ Visual Analog Scale-Intestinal Problems, Baseline, Mean",[4],2.975
same,"SHAQ Visual Analog Scale-Intestinal Problems, Baseline, Median",[4],2.550
same,"SHAQ Visual Analog Scale-Intestinal Problems, In Clinic Visit (Day 12), Mean",[4],1.100
same,"SHAQ Visual Analog Scale-Intestinal Problems, In Clinic Visit (Day 12), Median",[4],0.300
same,"SHAQ Visual Analog Scale-Pain, Baseline, Mean",[4],1.975
same,"SHAQ Visual Analog Scale-Pain, Baseline, Median",[4],2.150
same,"SHAQ Visual Analog Scale-Pain, In Clinic Visit (Day 12), Mean",[4],1.875
same,"SHAQ Visual Analog Scale-Pain, In Clinic Visit (Day 12), Median",[4],1.950
same,"SHAQ Visual Analog Scale-Raynaud's, Baseline, Mean",[4],1.600
same,"SHAQ Visual Analog Scale-Raynaud's, Baseline, Median",[4],1.000
same,"SHAQ Visual Analog Scale-Raynaud's, In Clinic Visit (Day 12), Mean",[4],1.925
same,"SHAQ Visual Analog Scale-Raynaud's, In Clinic Visit (Day 12), Median",[4],1.700
same,"SHAQ alternative disability index, Baseline, Mean",[4],0.500
same,"SHAQ alternative disability index, Baseline, Median",[4],0.438
same,"SHAQ alternative disability index, In Clinic Visit (Day 12), Mean",[4],0.563
same,"SHAQ alternative disability index, In Clinic Visit (Day 12), Median",[4],0.500
same,"SHAQ Finger Ulcers, Baseline, Mean",[5],1.800
same,"SHAQ Finger Ulcers, Baseline, Median",[5],0.300
